We go through 59 compounds from ChEMBL document CHEMBL1141299, “Hologram QSAR model for the prediction of human oral bioavailability” (Bioorg Med Chem, 2007).

In the first series the test system is Homo sapiens. Put plainly: (§1) Oral bioavailability in human. To be noted: in vivo.
Compound `O=C(NC[C@H]1CCCCN1)c1cc(OCC(F)(F)F)ccc1OCC(F)(F)F` (stereo in doubt; 083) [(R)-FLECAINIDE] yielded an F of 95%.

Regarding `C[C@H]1COc2c(N3CCN(C)CC3)c(F)cc3c(=O)c(C(=O)O)cn1c23.C[C@H]1COc2c(N3CCN(C)CC3)c(F)cc3c(=O)c(C(=O)O)cn1c23.O` (stereo in doubt; 162) [LEVOFLOXACIN], the F is listed as 97.5%.

Take `O=C(NC[C@H]1CCCCN1)c1cc(OCC(F)(F)F)ccc1OCC(F)(F)F` (stereo in doubt; 268) [(R)-FLECAINIDE]: the F is reported as 70%.

Test system in a further series: not listed separately
The description is as §1. To be noted: in vivo.
For `c1ccc(C2(N3CCCCC3)CCCCC2)cc1` [PHENCYCLIDINE], the bioavailability came to 72%.

`CCC1(c2ccccc2)C(=O)NC(=O)NC1=O` [PHENOBARBITAL] gave a bioavailability of 96%.

As for `CCC(C(N)=O)(C(N)=O)c1ccccc1` [PHENYLETHYLMALONAMIDE], the bioavailability was found to be 91%.

`CNC(=O)Oc1ccc2c(c1)[C@]1(C)CCN(C)[C@@H]1N2C` [PHYSOSTIGMINE] yielded a bioavailability of 6%.

On to `C[C@@H]1O[C@@H](O[C@@H]2C=C3CC[C@@H]4[C@H](CC[C@]5(C)[C@@H](c6ccc(=O)oc6)CC[C@]45O)[C@@]3(C)CC2)[C@H](O)[C@H](O)[C@H]1O` [PROSCILLARIDIN], for which the bioavailability is 7%.

In the case of `NC(=O)c1ncn([C@@H]2O[C@H](CO)[C@@H](O)[C@H]2O)n1` [RIBAVIRIN], the bioavailability worked out at 64%.

As to `Cc1nc2n(c(=O)c1CCN1CCC(c3noc4cc(F)ccc34)CC1)CCCC2` [RISPERIDONE], the bioavailability came to 70%.

Consider `C[C@]12CC[C@H]3[C@@H](CCC4=CC(=O)CC[C@@]43C)[C@@H]1CC[C@@H]2O` [TESTOSTERONE], for which the bioavailability was 7%.

`Cn1c(=O)c2[nH]cnc2n(C)c1=O.O` [THEOPHYLLINE] displayed a bioavailability of 98.8%.

Regarding `COc1cccc([C@@]2(O)CCCC[C@@H]2CN(C)C)c1` [TRAMADOL], the bioavailability turned out to be 75%.

Compound `Cc1nnc2n1-c1ccc(Cl)cc1C(c1ccccc1Cl)=NC2` [TRIAZOLAM] showed a bioavailability of 44%.

For the compound `O=C(O[C@H]1C[C@H]2CC[C@@H](C1)[N+]21CCCC1)C(O)(c1ccccc1)c1ccccc1` [TROSPIUM], the bioavailability stood at 9.6%.

For `CCN(C(C)=O)c1cccc(-c2ccnc3c(C#N)cnn23)c1` [ZALEPLON], the bioavailability is 30%.

`Cc1ccc(-c2nc3ccc(C)cn3c2CC(=O)N(C)C)cc1` [ZOLPIDEM] registered a bioavailability of 72%.

The series is the same for the next values; noted with them: in vivo, F.
The compound `CN(C)[C@@H]1C(O)=C(C(N)=O)C(=O)[C@@]2(O)C(O)=C3C(=O)c4c(O)cccc4[C@@](C)(O)[C@H]3[C@H](O)[C@@H]12` [OXYTETRACYCLINE] had a bioavailability of 58%.

Turning to `COc1ccnc(C[S+]([O-])c2nc3ccc(OC(F)F)cc3[nH]2)c1OC` (centres undefined) [PANTOPRAZOLE], the bioavailability was 77%.

In turn, `CC1(C)S[C@@H]2[C@H](NC(=O)Cc3ccccc3)C(=O)N2[C@H]1C(=O)O` [PENICILLIN G] came in with a bioavailability of 22.5%.

Consider `O=C1NC(=O)C(c2ccccc2)(c2ccccc2)N1` [PHENYTOIN], for which the bioavailability came out at 90%.

The compound `CN(C)S(=O)(=O)c1ccc2c(c1)N(CCCN1CCC(CCO)CC1)c1ccccc1S2` [PIPOTIAZINE] displayed a bioavailability of 26%.

`O=C(O)Cc1nn(-c2ccc(F)cc2)cc1-c1ccc(Cl)cc1` [PIRAZOLAC] returned a bioavailability of 93.5%.

Take `CN1C(C(=O)Nc2ccccn2)=C(O)c2ccccc2S1(=O)=O` [PIROXICAM]: the bioavailability is 100%.

`CC[C@H](C)C(=O)O[C@H]1C[C@H](O)C=C2C=C[C@H](C)[C@H](CC[C@@H](O)C[C@@H](O)CC(=O)O)[C@H]21` [PRAVASTATIN]: the bioavailability came out at 17%.

For the compound `COc1cc2nc(N3CCN(C(=O)c4ccco4)CC3)nc(N)c2cc1OC` [PRAZOSIN], the bioavailability was 68%.

In turn, `C[C@]12C=CC(=O)C=C1CC[C@@H]1[C@@H]2[C@@H](O)C[C@@]2(C)[C@H]1CC[C@]2(O)C(=O)COP(=O)(O)O` [PREDNISOLONE PHOSPHORIC ACID] gave a bioavailability of 82%.

In turn, `C[C@]12C=CC(=O)C=C1CC[C@@H]1[C@@H]2C(=O)C[C@@]2(C)[C@H]1CC[C@]2(O)C(=O)CO` [PREDNISONE] gave a bioavailability of 80%.

In the case of `CCC1(c2ccccc2)C(=O)NCNC1=O` [PRIMIDONE], the bioavailability was 92%.

In turn, `CCN(CC)CCNC(=O)c1ccc(N)cc1` [PROCAINAMIDE] showed a bioavailability of 83%.

Consider `CCCc1cc(=O)[nH]c(=S)[nH]1` [PROPYLTHIOURACIL], for which the bioavailability came to 78%.

As for `CNCCCC1c2ccccc2C=Cc2ccccc21` [PROTRIPTYLINE], the bioavailability worked out at 85%.

With `C=C[C@H]1C[N@@]2CC[C@H]1C[C@@H]2[C@@H](O)c1ccnc2ccc(OC)cc12` [QUINIDINE], the bioavailability was found to be 75%.

For the compound `CC(C)(C)NC[C@@H](O)COc1cccc2c1C[C@H](O)[C@H](O)C2` [R-NADOLOL], the bioavailability is 34%.

Turning to `O=C(c1ccc(OCCN2CCCCC2)cc1)c1c(-c2ccc(O)cc2)sc2cc(O)ccc12` [RALOXIFENE], the bioavailability turned out to be 2%.

`CCOc1cc(CC(=O)N[C@@H](CC(C)C)c2ccccc2N2CCCCC2)ccc1C(=O)O` [REPAGLINIDE]: the bioavailability is 56%.

Compound `CO[C@H]1/C=C/O[C@@]2(C)Oc3c(C)c(O)c4c(O)c(c(/C=N/N5CCN(C)CC5)c(O)c4c3C2=O)NC(=O)/C(C)=C\C=C\[C@H](C)[C@H](O)[C@@H](C)[C@@H](O)[C@@H](C)[C@H](OC(C)=O)[C@@H]1C` [RIFAMPIN] came in with a bioavailability of 88.8%.

As to `CN(C)CCc1c[nH]c2ccc(Cn3cncn3)cc12` [RIZATRIPTAN], the bioavailability was 45%.

The compound `CS(=O)(=O)c1ccc(C2=C(c3ccccc3)C(=O)OC2)cc1` [ROFECOXIB] displayed a bioavailability of 93%.

In the case of `CCCN(CCC)CCc1cccc2c1CC(=O)N2` [ROPINIROLE], the bioavailability was 55%.

`CC(C)(C)NC[C@H](O)COc1cccc2c1C[C@H](O)[C@H](O)C2` [S-NADOLOL] displayed a bioavailability of 34%.

The compound `Cc1cccc(C)c1NC(=O)[C@H](C)N` [S-TOCAINIDE] had a bioavailability of 89%.

Compound `O=C1NS(=O)(=O)c2ccccc21` [SACCHARIN] registered a bioavailability of 84%.

In turn, `CO[C@H]1C[C@@H]2CC[C@@H](C)[C@@](O)(O2)C(=O)C(=O)N2CCCC[C@H]2C(=O)O[C@H]([C@H](C)C[C@@H]2CC[C@@H](O)[C@H](OC)C2)CC(=O)[C@H](C)/C=C(\C)[C@@H](O)[C@@H](OC)C(=O)[C@H](C)C[C@H](C)/C=C/C=C/C=C/1C` [SIROLIMUS] displayed a bioavailability of 14%.

In turn, `CC(=O)S[C@@H]1CC2=CC(=O)CC[C@]2(C)[C@H]2CC[C@@]3(C)[C@@H](CC[C@@]34CCC(=O)O4)[C@H]12` [SPIRONOLACTONE] returned a bioavailability of 25%.

As to `Cc1cn([C@H]2C=C[C@@H](CO)O2)c(=O)[nH]c1=O` [STAVUDINE], the bioavailability was 82%.

As to `C=CC[C@@H]1/C=C(\C)C[C@H](C)C[C@H](OC)[C@H]2O[C@@](O)(C(=O)C(=O)N3CCCC[C@H]3C(=O)O[C@H](/C(C)=C/[C@@H]3CC[C@@H](O)[C@H](OC)C3)[C@H](C)[C@@H](O)CC1=O)[C@H](C)C[C@@H]2OC` [TACROLIMUS ANHYDROUS], the bioavailability is 17%.

For the compound `C[C@@H](C(=O)O)c1ccc(-c2ccccc2)c(F)c1` [TARENFLURBIL], the bioavailability worked out at 92%.

`Cc1scc2c1N(C(=O)CN1CCN(C)CC1)c1ccccc1NC2=O` [TELENZEPINE] registered a bioavailability of 54%.

In the case of `CC[C@H]1OC(=O)[C@H](C)C(=O)[C@H](C)[C@@H](O[C@@H]2O[C@H](C)C[C@H](N(C)C)[C@H]2O)[C@](C)(OC)C[C@@H](C)C(=O)[C@H](C)[C@H]2N(CCCCn3cnc(-c4cccnc4)c3)C(=O)O[C@]12C` [TELITHROMYCIN], the bioavailability was determined as 57%.

In turn, `CN(C)[C@@H]1C(O)=C(C(N)=O)C(=O)[C@@]2(O)C(O)=C3C(=O)c4c(O)cccc4[C@@](C)(O)[C@H]3C[C@@H]12` [TETRACYCLINE] had a bioavailability of 77%.

`CCCCNC(=O)NS(=O)(=O)c1ccc(C)cc1` [TOLBUTAMIDE] gave a bioavailability of 85%.

Compound `CC1(C)O[C@@H]2[C@@H](CO[C@@]3(COS(N)(=O)=O)OC(C)(C)O[C@@H]23)O1` [TOPIRAMATE] had a bioavailability of 70%.

On to `CC[C@@]1(O)C(=O)OCc2c1cc1n(c2=O)Cc2cc3c(CN(C)C)c(O)ccc3nc2-1` [TOPOTECAN], for which the bioavailability came to 32%.

Consider `Cc1cccc(Nc2ccncc2S(=O)(=O)NC(=O)NC(C)C)c1` [TORSEMIDE], for which the bioavailability was 91%.

In the case of `COc1cc(Cc2cnc(N)nc2N)cc(OC)c1OC` [TRIMETHOPRIM], the bioavailability came to 63%.

The compound `CCCC(CCC)C(=O)O` [VALPROIC ACID] gave a bioavailability of 90%.

In the case of `Cc1cn([C@H]2C[C@H](N=[N+]=[N-])[C@@H](CO)O2)c(=O)[nH]c1=O` [ZIDOVUDINE], the bioavailability was 64%.

As to `O=C1Cc2cc(CCN3CCN(c4nsc5ccccc45)CC3)c(Cl)cc2N1` [ZIPRASIDONE], the bioavailability stood at 60%.

In general, bioavailability refers to the share of a dose that reaches the circulation, judged against a reference dose that is usually intravenous. High values mean good availability, low ones poor availability.
